Reference: patent EP4603105A1, “PHARMACEUTICAL COMPOSITION CONTAINING CYCLIC COMPOUND HAVING SELECTIVE KRAS INHIBITORY EFFECT AGAINST HRAS AND NRAS” (CHUGAI SEIYAKU KABUSHIKI KAISHA, priority 2022, dated 2024)
*1 amine or outer side, *2 acyl side, *3 side chain or, on linkers, in order; H or OH if unused. Where a SMILES comes first, the peptide text is derived from it. Bridges are numbered along the chain shown (N, C = ends). [ ]: non-standard residue; d: D form. The star is where a group is joined. X6 = CC(C)(C)CCN([C@@H](Cc1ccc(C(F)(F)F)cc1)C(=O)[*:2])[*:1]; hPhe(3-Cl-4-CF3) = N[C@@H](CCc1ccc(C(F)(F)F)c(Cl)c1)C(=O)O; NPrPhe(4-CF3) = CCCN[C@@H](Cc1ccc(C(F)(F)F)cc1)C(=O)O; NPrPhe(4-Me) = CCCN[C@@H](Cc1ccc(C)cc1)C(=O)O; NMeGly(cPent) = CN[C@H](C(=O)O)C1CCCC1; NMeD = CN[C@@H](CC(=O)O)C(=O)O; NMeL = CN[C@@H](CC(C)C)C(=O)O; Pip = O=C(O)[C@@H]1CCCCN1; Morpholide = C1CN(*)CCO1; Ac5c = NC1(C(=O)O)CCCC1; Aze = O=C(O)[C@@H]1CCN1; Ac4c = NC1(C(=O)O)CCC1; NEtG = CCNCC(=O)O; Sar = CNCC(=O)O

Assays:
[1] = biological target: GDP-bound KRAS wild-type protein (Homo sapiens, UniProt P01116); assay: Binding to KRAS by surface plasmon resonance (SPR), dissociation constant KD; conditions: 1:1 binding model
Chain of GDP-bound KRAS wild-type protein (P01116 1-188 isoform P01116-2): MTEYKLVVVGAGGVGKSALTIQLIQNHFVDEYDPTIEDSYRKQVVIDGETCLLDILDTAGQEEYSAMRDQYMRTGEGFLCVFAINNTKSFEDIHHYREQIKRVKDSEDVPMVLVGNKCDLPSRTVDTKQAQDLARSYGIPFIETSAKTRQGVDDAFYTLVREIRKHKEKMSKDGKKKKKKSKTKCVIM
How it was run: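 Recombinant RAS proteins bearing a biotinylated Avi tag and loaded with GDP served as the captured ligand, recaptured fresh every cycle. Binding responses were referenced to an uncoated surface and a buffer-only blank cycle. Dissociation constants were obtained by 1:1 model fitting at 30°C.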

HRAS wild-type protein = HRAS wild-type protein (Homo sapiens, UniProt P01112); assay: Binding to HRAS by surface plasmon resonance (SPR), KD and KD ratio to KRAS
Chain of HRAS wild-type protein (P01112 whole entry): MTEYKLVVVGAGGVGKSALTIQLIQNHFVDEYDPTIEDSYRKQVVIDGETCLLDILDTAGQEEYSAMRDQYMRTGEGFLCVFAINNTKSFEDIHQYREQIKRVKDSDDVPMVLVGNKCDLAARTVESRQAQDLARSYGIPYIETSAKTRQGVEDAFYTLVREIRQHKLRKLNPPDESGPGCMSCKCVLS
How it was run: (§1)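 Running buffer contained 10 µM GDP and 10 mM MgCl2 to keep RAS in the GDP state, with 4% DMSO at pH 7.4. Compounds were flowed at 100 µL/min in 75 s steps of rising concentration over captured biotin-Avi RAS at 30°C. Sensorgrams were fitted 1:1 for KD.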

[2] = tested on: human lung cancer strain NCI-H441; type: cell-based
How it was run: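 Step one: dispense the test compound in serial DMSO dilutions. Step three: add the reagent and measure […].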

[3] = biological target: GDP-bound NRAS wild-type protein (Homo sapiens, UniProt P01111); assay: Binding to NRAS by surface plasmon resonance (SPR), KD and KD ratio to KRAS
Chain of GDP-bound NRAS wild-type protein (P01111 whole entry): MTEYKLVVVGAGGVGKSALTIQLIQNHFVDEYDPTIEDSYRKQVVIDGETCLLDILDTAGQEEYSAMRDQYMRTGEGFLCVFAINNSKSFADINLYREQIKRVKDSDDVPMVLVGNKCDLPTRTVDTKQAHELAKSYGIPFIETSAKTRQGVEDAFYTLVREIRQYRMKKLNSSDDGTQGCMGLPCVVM
How it was run: as §1

[4] = ratio of KD for HRAS wild-type protein to KD for KRAS
[5] = ratio of KD for GDP-bound NRAS wild-type protein to KD for KRAS
[6] = ratio of the KD value with respect to HRAS wild-type protein to the KD value with respect to KRAS
[7] = ratio of the KD value with respect to GDP-bound NRAS wild-type protein to the KD value with respect to KRAS

Kd [1]	IC50 [2]	Kd ([1]; Single Cycle Kinetics)	Structure (SMILES)	HRAS /KRAS (HRAS wild-type protein; [4])	NRAS /KRAS [3, 5]	HRAS /KRAS (HRAS wild-type protein; [6])	NRAS /KRAS [3, 7]	HRAS /KRAS (HRAS wild-type protein; ratio of KD value for HRAS wild-type protein to KD value for KRAS (SPR))	NRAS /KRAS ([3]; ratio of KD value for GDP-bound NRAS wild-type protein to KD value for KRAS (SPR))
0.16 nM	2.1 nM		CCCN1C(=O)[C@@H]2CCN2C(=O)[C@@H]2CCCCN2C(=O)[C@H]([C@@H](C)CC)NC(=O)[C@H](CC(C)C)N(C)C(=O)C[C@@H](C(=O)N2CCOCC2)N(C)C(=O)[C@H](C2CCCC2)N(C)C(=O)C2(CCCC2)NC(=O)[C@@H]2CCCN2C(=O)[C@H](CCc2ccc(C(F)(F)F)c(Cl)c2)NC(=O)CN(C)C(=O)[C@@H]1Cc1ccc(C)cc1 [PP0070] ([NMeL]I[Pip][Aze][NPrPhe(4-Me)][Sar][hPhe(3-Cl-4-CF3)]P[Ac5c][NMeGly(cPent)][NMeD]-Morpholide; lactam N-11)	B (a compound having 3 or more and less than 10 is denoted as B)	C (A compound having a KD ratio of 0.1 or more and less than 3 is denoted as C)				
	44.7 nM	1.9 nM	CCC[C@H]1C(=O)N[C@@H]([C@@H](C)CC)C(=O)N(C)CC(=O)N(C)[C@H]2C/C=C\CCN(C2=O)[C@@H](CC2CCCCC2)C(=O)N(C)CC(=O)N[C@@H](CCc2ccc(C(F)(F)F)c(OC)c2)C(=O)N2C[C@H](OCC)C[C@H]2C(=O)N(C)C2(CCC2)C(=O)N(C)[C@@H](C(CC)CC)C(=O)N(C)[C@H](C(=O)N(C)C)CC(=O)N1C [PP2333]			A (a compound having 10 or more and less than 20 is denoted as A)	A (a compound having 10 or more and less than 20 is denoted as A)		
	16.2 nM	0.41 nM	CCCN1C(=O)CN(CC)C(=O)CN(C)C(=O)[C@H]([C@@H](C)CC)NC(=O)[C@H](CC(C)C)N(C)C(=O)C[C@@H](C(=O)N2CCOCC2)N(C)C(=O)[C@H](C2CCCC2)N(C)C(=O)C2(CCC2)NC(=O)[C@@H]2CCCN2C(=O)[C@H](CCc2ccc(C(F)(F)F)c(Cl)c2)NC(=O)CN(C)C(=O)[C@@H]1Cc1ccc(C(F)(F)F)cc1 [PP1948] ([NMeL]I[Sar][NEtG][NPrPhe(4-CF3)][Sar][hPhe(3-Cl-4-CF3)]P[Ac4c][NMeGly(cPent)][NMeD]-Morpholide; lactam N-11)			C (A compound having a KD ratio of 0.1 or more and less than 3 is denoted as C)	C (A compound having a KD ratio of 0.1 or more and less than 3 is denoted as C)		
	1.6 nM	0.031 nM	CCCOC[C@H]1C(=O)N[C@@H]([C@@H](C)CC)C(=O)N(C)CC(=O)N(C)[C@H]2C/C=C\CCN(C2=O)[C@@H](Cc2ccc(C)cc2)C(=O)N(C)CC(=O)N[C@@H](CCc2ccc(C(F)(F)F)c(OC)c2)C(=O)N2C[C@H](OCC)C[C@H]2C(=O)N(C)C2(CCC2)C(=O)N(C)[C@@H](C2CCCC2)C(=O)N(C)[C@H](C(=O)N(C)C)CC(=O)N1C [PP2326]			B (a compound having 3 or more and less than 10 is denoted as B)	A (a compound having 10 or more and less than 20 is denoted as A)		
0.92 nM	25.3 nM		CC[C@H](C)[C@@H]1NC(=O)[C@H](CC(C)C)N(C)C(=O)C[C@@H](C(=O)N2CCOCC2)N(C)C(=O)[C@H](C2CCCC2)N(C)C(=O)C2(CCCC2)NC(=O)[C@@H]2CCCN2C(=O)[C@H](CCc2ccc(C(F)(F)F)c(Cl)c2)NC(=O)CN(C)C(=O)[C@H](Cc2ccc(C(F)(F)F)cc2)N(CCC(C)(C)C)C(=O)CN(C)C(=O)CN(C)C1=O [PP0127] ([NMeL]I[Sar][Sar][X6][Sar][hPhe(3-Cl-4-CF3)]P[Ac5c][NMeGly(cPent)][NMeD]-Morpholide; lactam N-11)	C (A compound having a KD ratio of 0.1 or more and less than 3 is denoted as C)	C (A compound having a KD ratio of 0.1 or more and less than 3 is denoted as C)				
0.41 nM	22.2 nM		CCO[C@@H]1C[C@H]2C(=O)NC3(CC(C)(C)C3)C(=O)N(C)[C@@H](C3CCCC3)C(=O)N(C)[C@H](C(=O)N(C)C)CC(=O)N(C)[C@@H]([C@H](C)OC)C(=O)N[C@@H]([C@@H](C)CC)C(=O)N(C3CC3)CC(=O)N(C)[C@H]3C/C=C\CCN(C3=O)[C@@H](Cc3ccc(C)cc3)C(=O)N(C)CC(=O)N[C@@H](CCc3ccc(C(F)(F)F)c(Cl)c3)C(=O)N2C1 [PP3195]	A (a compound having 10 or more and less than 20 is denoted as A)	A (a compound having 10 or more and less than 20 is denoted as A)				
1.2 nM	63.6 nM		CCO[C@@H]1C[C@H]2C(=O)NC3(CC(C)(C)C3)C(=O)N(C)[C@@H](C3CCCC3)C(=O)N(C)[C@H](C(=O)N(C)C)CC(=O)N(C)[C@@H]([C@H](C)OC)C(=O)N[C@@H]([C@@H](C)CC)C(=O)N3CCC[C@H]3C(=O)N(C)[C@H]3C/C=C\CCN(C3=O)[C@@H](Cc3ccc(C(F)(F)F)cc3)C(=O)N(C)CC(=O)N[C@@H](CCc3ccc(C(F)(F)F)c(Cl)c3)C(=O)N2C1 [PP3183]	B (a compound having 3 or more and less than 10 is denoted as B)	B (a compound having 3 or more and less than 10 is denoted as B)				
	963 nM	18 nM	CC[C@H](C)[C@@H]1NC(=O)[C@H](CC(C)C)N(C)C(=O)C[C@@H](C(=O)N2CCOCC2)N(C)C(=O)[C@H](C2CCCC2)N(C)C(=O)[C@](C)(CC)NC(=O)[C@@H]2CCCN2C(=O)[C@H](CCc2cc(F)c(C(F)(F)F)c(F)c2)NC(=O)CN(C)C(=O)[C@H](Cc2ccc(C(F)(F)F)cc2)N2CCCCC[C@@H](C2=O)N(C)C(=O)CN(C)C1=O [PP0500]			B (a compound having 3 or more and less than 10 is denoted as B)	B (a compound having 3 or more and less than 10 is denoted as B)		
	135 nM	2.3 nM	CCO[C@@H]1C[C@H]2C(=O)NC3(CCC3)C(=O)N(C)[C@@H](C3CCCC3)C(=O)N(C)[C@H](C)CC(=O)N(C)[C@@H](CC(C)C)C(=O)N[C@@H]([C@@H](C)CC)C(=O)N(C)CC(=O)N(C)[C@H]3C/C=C\CCN(C3=O)[C@@H](Cc3ccc(F)cc3C)C(=O)N(C)CC(=O)N[C@@H](CCc3cc(F)c(C(F)(F)F)c(F)c3)C(=O)N2C1 [PP1493]					B (a compound having 3 or more and less than 10 is denoted as B)	B (a compound having 3 or more and less than 10 is denoted as B)
2.1 nM	128 nM		CCC[C@H]1C(=O)N[C@@H](C2CCOCC2)C(=O)N(C)CC(=O)N(C)[C@H]2C/C=C\CCN(C2=O)[C@@H](Cc2ccc(C)cc2)C(=O)N(C)CC(=O)N[C@@H](CCc2ccc(C(F)(F)F)c(Cl)c2)C(=O)N2C[C@H](OCC)C[C@H]2C(=O)NC2(CC(C)(C)C2)C(=O)N(C)[C@@H](C2CCCC2)C(=O)N(C)[C@H](C(=O)N(C)C)CC(=O)N1C [PP3002]	A (a compound having 10 or more and less than 20 is denoted as A)	A (a compound having 10 or more and less than 20 is denoted as A)				
	20 nM	0.49 nM	CCO[C@@H]1C[C@H]2C(=O)NC3(CC(C)(C)C3)C(=O)N(C)[C@@H](C(CC)CC)C(=O)N(C)[C@H](C(=O)N(C)C)CC(=O)N(C)[C@@H](C(C)C)C(=O)N[C@@H]([C@@H](C)CC)C(=O)N(C)CC(=O)N(C)[C@H]3C/C=C\CCN(C3=O)[C@@H](Cc3ccc(C)cc3)C(=O)N(C)CC(=O)N[C@@H](CCc3cc(F)c(C(F)(F)F)c(F)c3)C(=O)N2C1 [PP2153]			A (a compound having 10 or more and less than 20 is denoted as A)	A (a compound having 10 or more and less than 20 is denoted as A)		
